This passage reports Kd results from article PMC5217690 (The Journal of Biological Chemistry, 2016).

One assay addresses T1, TrmDEC (Escherichia coli, UniProt P0A873).
T1 construct: gene trmD; full-length, N-terminal His tag (pET28b), expressed in E. coli BL21(DE3), tag kept
T1 sequence (P0A873 2-255): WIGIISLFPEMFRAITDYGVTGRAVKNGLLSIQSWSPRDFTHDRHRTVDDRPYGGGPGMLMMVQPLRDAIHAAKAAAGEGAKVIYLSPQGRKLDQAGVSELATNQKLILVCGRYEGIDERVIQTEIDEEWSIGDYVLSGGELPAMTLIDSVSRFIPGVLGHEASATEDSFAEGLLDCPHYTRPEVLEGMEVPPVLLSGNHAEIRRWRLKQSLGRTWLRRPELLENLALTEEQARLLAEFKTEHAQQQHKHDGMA
Kind of assay: ITC. It is filed as binding.

For a further assay, the target named is T2, TrmDSA (Staphylococcus aureus, UniProt Q2FHJ8).
T2 construct: gene trmD; full-length, N-terminal His tag (pET28b), expressed in E. coli BL21(DE3), tag kept
T2 sequence (Q2FHJ8 2-245): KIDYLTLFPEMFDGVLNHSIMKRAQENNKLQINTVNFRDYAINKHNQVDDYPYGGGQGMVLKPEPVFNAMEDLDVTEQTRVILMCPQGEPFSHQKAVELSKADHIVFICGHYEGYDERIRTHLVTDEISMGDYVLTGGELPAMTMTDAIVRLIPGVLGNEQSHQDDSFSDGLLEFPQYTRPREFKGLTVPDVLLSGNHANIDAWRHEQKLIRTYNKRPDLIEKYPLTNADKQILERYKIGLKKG
Description: ITC. It counts as binding.

For orientation: Kd means the equilibrium constant for the complex coming apart. Read a low Kd as tighter binding. `C[S+](CC[C@H](N)C(=O)O)C[C@H]1O[C@@H](n2cnc3c(N)ncnc32)[C@H](O)[C@@H]1O` (some centres unmarked) [AdoMet]: the Kd on TrmDEC stood at 21.5 µM; on TrmDSA it was 121 µM.
